# PMC3503449 (Breast cancer research and treatment, 2008)
# Target: estrogen receptor α (ERα) (Homo sapiens, UniProt P03372)
# Assay: ERE-luciferase reporter, antagonism of EXE-induced ER activity
# Assay type: cell-based
# estrogen receptor α (ERα), sequence (P03372 whole entry): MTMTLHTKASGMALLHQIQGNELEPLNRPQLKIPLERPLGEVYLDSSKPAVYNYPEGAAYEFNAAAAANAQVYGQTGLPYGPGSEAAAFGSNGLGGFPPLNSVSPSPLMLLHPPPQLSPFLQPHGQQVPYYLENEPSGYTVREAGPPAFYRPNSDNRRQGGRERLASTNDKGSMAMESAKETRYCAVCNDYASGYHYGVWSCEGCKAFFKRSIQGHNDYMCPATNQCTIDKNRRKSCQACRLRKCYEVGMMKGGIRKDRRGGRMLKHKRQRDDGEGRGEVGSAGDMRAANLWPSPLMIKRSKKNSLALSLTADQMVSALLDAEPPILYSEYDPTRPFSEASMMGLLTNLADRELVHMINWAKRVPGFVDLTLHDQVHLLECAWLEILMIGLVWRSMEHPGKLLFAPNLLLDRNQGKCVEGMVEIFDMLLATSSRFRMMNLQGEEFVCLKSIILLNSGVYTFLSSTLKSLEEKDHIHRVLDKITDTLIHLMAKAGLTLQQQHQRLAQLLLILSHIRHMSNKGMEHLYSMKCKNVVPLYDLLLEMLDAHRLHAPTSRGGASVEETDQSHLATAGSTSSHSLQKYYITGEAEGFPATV
smiles,measurement,value
"C[C@]12CC[C@@H]3c4ccc(O)cc4C[C@@H](CCCCCCCCC[S+]([O-])CCCC(F)(F)C(F)(F)F)[C@H]3[C@@H]1CC[C@@H]2O (stereo partly shown) [ICI, ICI 182780]","ERE-luciferase reporter, antagonism of EXE-induced ER activity",ER activity was inhibited using the pure ER antagonist ICI
